pIC50: −log10 of the molar value. Read-outs that look alike come from different tables or passages of the source.
Tests used:
[1] = test system: K562; assay: Proliferation assay B (spheroid assay) K562 control cell line; format: cell-based; settings: Homo sapiens, 192 h; K562 cells (MLL wildtype control), confluence at day 8; read-out: (3b) Spheroid assay K562 Assay B
Description: 3b) Proliferation Assay B
(§1) The anti-proliferative effect of menin/MLL protein/protein interaction inhibitor test compounds was assessed in human leukemia cell lines. The cell lines MV-4-11 and MOLM14 harbor MILL translocations and express the MILL fusion proteins MLL-AF4 and MLL-AF9, respectively, as well as the wildtype protein from the second allele. […] K562 was used as a control cell line containing two MLL wildtype alleles in order to exclude compounds that display general cytotoxic effects.
(§2) MV-4-11 and MOLM14 were cultured in RPMI-1640 (Sigma Aldrich) supplemented with 10% fetal bovine serum (HyClone), 2 mM L-glutamine (Sigma Aldrich) and 50 μg/ml gentamycin (Gibco). K562 were propagated in RPMI-1640 (Sigma Aldrich) supplemented with 20% fetal bovine serum (HyClone), 2 mM L-glutamine (Sigma Aldrich) and 50 μg/ml gentamycin (Gibco).
(§3) In order to assess the anti-proliferative effects, 1,500 MV-4-11, 300 MOLM14 cells or 750 K562 cells were seeded in 200 μl media per well in 96-well round bottom, ultra-low attachment plates (Costar, catalogue number 7007). Cell seeding numbers were chosen based on growth curves to ensure linear growth throughout the experiment. Test compounds were added at different concentrations and the DMSO content was normalized to 0.3%. Cells were incubated for 8 d at 37° C. and 5% CO2. Spheroid like growth was measured in real-time by live-cell imaging (IncuCyteZOOM, Essenbio, 4× objective) acquiring images at day 8. Confluence (%) as a measure of spheroid size was determined using an integrated analysis tool.
In order to determine the effect of the test compounds over time, the confluence in each well as a measure of spheroid size, was calculated. Confluence […] at the beginning of the experiment (t=0) was used as baseline for the calculation.
Absolute IC50 values were calculated as percent change in confluence as follows:
LC=Low Control: cells treated with 1 μM of the cytotoxic agent staurosporin
HC=High Control: Mean confluence (%) (DMSO treated cells) % Effect=100−(100*(Sample−LC)/(HC−LC))
To determine the IC50 a curve is fitted to the plot of % Effect vs Log 10 compound concentration using a sigmoidal fit with a variable slope and fixing the maximum to 100% and the minimum to 0%.

[2] = test system: MOLM14; assay: Proliferation assay B (spheroid assay) MOLM14; format: cell-based, human; settings: MOLM14 cells, confluence at day 8, absolute IC50, read-out: (3b) Spheroid assay MOLM14 (IC50(μM)) Assay B
How it was run: (§4)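 IC50 derived from % effect on day-8 imaged confluence, scaled between DMSO-treated cells (high) and 1 μM staurosporine (low), using a variable-slope fit constrained 0-100%. Cells seeded as spheroids in ultra-low-attachment plates and exposed to compound for 8 days, 0.3% DMSO.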

[3] = target: T1, menin (Homo sapiens, UniProt O00255, T541A); assay: Menin/MLL homogenous time-resolved fluorescence (HTRF) assay; format: binding
T1 construct: Menin (a.a. 1-610-6×his tag)
T1 sequence (O00255 with tags, fused parts or gaps T541A): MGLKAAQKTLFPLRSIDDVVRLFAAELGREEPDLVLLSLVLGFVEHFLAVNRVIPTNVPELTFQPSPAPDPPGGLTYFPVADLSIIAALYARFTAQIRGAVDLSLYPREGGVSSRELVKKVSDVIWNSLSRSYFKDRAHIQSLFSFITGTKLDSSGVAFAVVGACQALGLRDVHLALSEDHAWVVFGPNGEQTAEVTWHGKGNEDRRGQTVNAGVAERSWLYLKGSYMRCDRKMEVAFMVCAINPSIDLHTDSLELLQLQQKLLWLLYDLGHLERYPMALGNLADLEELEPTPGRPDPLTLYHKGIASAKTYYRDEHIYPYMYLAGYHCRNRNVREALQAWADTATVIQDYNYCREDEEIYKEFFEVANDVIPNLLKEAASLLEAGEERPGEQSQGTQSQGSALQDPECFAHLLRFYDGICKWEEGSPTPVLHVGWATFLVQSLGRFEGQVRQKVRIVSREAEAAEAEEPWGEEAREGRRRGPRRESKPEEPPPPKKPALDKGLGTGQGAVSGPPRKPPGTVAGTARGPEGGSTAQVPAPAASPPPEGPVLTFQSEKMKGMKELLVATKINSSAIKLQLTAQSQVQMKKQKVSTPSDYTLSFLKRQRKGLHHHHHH
How it was run: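 Displacement of 75 nM FITC-MBM1 from terbium-cryptate-labeled His-tagged menin 1-610 ([…]) was read as the 520/490 nm HTRF ratio. Compound (11-point, 3-fold series) got 5 min with menin before peptide, then 15 min at ambient; 0.5% DMSO, Tris pH 7.5.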

[4] = test system: MV-4-11; assay: Proliferation assay B (spheroid assay) MV-4-11; format: cell-based, human; settings: MV-4-11 cells, confluence at day 8, absolute IC50, read-out: (3b) Spheroid assay MV-4--11 (IC50(μM)) Assay B
How it was run: as §4

[5] = test system: MV-4-11; assay: Proliferation assay A (spheroid assay) MV-4-11; format: cell-based, human; settings: Homo sapiens, MV4-11, 192 h, MV-4-11 cells, 8 d, AUC of confluence against time, absolute IC50; read-out: (3a) Spheroid assay MV-4-11 (IC50(μM)) Assay A
How it was run: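 Spheroid growth in ultra-low-attachment round-bottom wells (1,500 MV-4-11, 300 MOLM14 or 750 K562 cells), compound titration at 0.3% DMSO, 8 d at 37° C. Confluence imaged every 4 h; AUC from t=0 baseline expressed as % of DMSO control and fitted for absolute IC50.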

[6] = test system: K562; assay: Proliferation assay A (spheroid assay) K562 control cell line; format: cell-based; settings: Homo sapiens, 192 h; K562 cells (MLL wildtype control), 8 d, AUC of confluence against time; read-out: (3a) Spheroid assay K562 Assay A
Description: (§5) 3a) Proliferation Assay A
as §1
MV-4-11 and MOLM14 were cultured in RPMI-1640 (Sigma Aldrich) supplemented with 10% fetal bovine serum (HyClone), 2 mM L-glutamine (Sigma Aldrich) and 50 μg/ml gentamycin (Gibco). […]
In order to assess the anti-proliferative effects, 1,500 MV-4-11, 300 MOLM14 or 750 K562 cells were seeded in 200 μl media per well in 96-well round bottom, ultra-low attachment plates (Costar, catalogue number 7007). […] Spheroid like growth was monitored in real-time by live-cell imaging (IncuCyteZOOM, Essenbio, 4× objective) acquiring one image every four hours for 8 d. Confluence (%) as a measure of spheroid size was determined using an integrated analysis tool.
In order to determine the cumulative effect of the test compounds over time, the area under the curve (AUC) in a plot of confluence against time was calculated. […]

[7] = test system: MOLM14; assay: Proliferation assay A (spheroid assay) MOLM14; format: cell-based, human; settings: Homo sapiens, MOLM-14, 192 h, MOLM14 cells, 8 d, AUC of confluence against time, absolute IC50; read-out: (3a) Spheroid assay MOLM14 (IC50(μM)) Assay A
Description: as §5, §1, §2
as §3, with “MOLM14” for “MOLM14 cells”, “monitored” for “measured”, “one image every four hours for 8 d.” for “images at day 8.”
In order to determine the cumulative effect of the test compounds over time, the area under the curve (AUC) in a plot of confluence against time was calculated. Confluence at the beginning of the experiment (t=0) was used as baseline for the AUC calculation.
Absolute IC50 values were calculated according to the following procedure: % Control=(AUC sample/AUC control)*100
AUC control mean AUC of control values (cells without compound/DMSO as vehicle control)
A non-linear curve fit was applied using the least squares (ordinary) fit method to the plot of % control versus compound concentration. Based on this, the absolute IC50 value (half maximal inhibitory concentration of the test compound causing an anti-proliferative effect of 50% relative to the vehicle control) was calculated.

[8] = location 2, read-out: (2) location 2 Menin HTRF assay (IC50 (nM))
[9] = location 1, read-out: (2) location 1 Menin HTRF assay (IC50 (nM))

| pIC50 [1] | IC50 [2] [µM] | IC50 [3, 8] [nM] | IC50 [4] [µM] | IC50 [5] [µM] | pIC50 [6] | IC50 [7] [µM] | IC50 [3, 9] [nM] | IC50 ([2]; Homo sapiens, MOLM-14, 192 h) [µM] | IC50 ([4]; Homo sapiens, MV4-11, 192 h) [µM] | Compound |
| --- | --- | --- | --- | --- | --- | --- | --- | --- | --- | --- |
| 5.40 | 0.13 | 206 | 0.26 |  |  |  |  |  |  | CN1CC=C(c2cc(NC3CC4(CCN(c5ncnc6sc(CC(F)(F)F)cc56)C4)C3)ccc2C(C)(C#N)C#N)CC1 (single isomer, unassigned) [Compound 246] |
|  |  |  |  | 0.14 | < 4.82 | 1.02 | 15.5 |  |  | FC(F)(F)Cc1cc2c(N3CC4(CC[C@@H](NCc5ccccc5)C4)C3)ncnc2s1 (single isomer, unassigned) [Compound 47] |
|  |  |  |  | 0.35 | < 4.82 | 1.58 | 12 |  |  | FC(F)(F)Cc1cc2c(N3CCC4(CC(NCc5ccccc5)C4)C3)ncnc2s1 (stereo not shown) [Compound 48] |
| 5.11 |  | 1.8 |  |  |  |  |  | 0.63 | 0.19 | CNC(=O)c1ccc(NC2CC3(CCN(c4ncnc5sc(CC(F)(F)F)cc45)C3)C2)cc1OCCN(C)C (single isomer, unassigned) [Compound 77] |
